Data set [1] relates to endothelium proliferation. Briefly: endothelium proliferation. In kind it is cell-based.
Another data set concerns solid tumor cells. The conditions noted are these: disclosed in EP 1 423 131; cited from earlier work.
Another data set has as its system endothelial cells. Briefly: effect of endothelial growth factors on calcium entrance into single endothelial cells. The data set is classed as cell-based.
In the next data set the test system is tumor growth. The conditions noted are these: disclosed in EP 1 423 131; cited from earlier work.
The test system of data set [2] is VEGF-induced angiogenesis in Matrigel plugs. The data set is described as follows: murine model of angiogenesis induced by subcutaneous implant of Matrigel containing VEGF. The conditions noted are these: for reduction in angiogenesis (morphometric analysis, percentage of area covered by vessels): VEGF 40 ng/ml in Matrigel, plugs removed after 7 days, vs VEGF alone. The data set is classed as in vivo, mouse. As for the experimental part: The effect of calcium trifluoroacetate in angiogenesis was evidenced in a murine model of angiogenesis induced by a subcutaneous implant of Matrigel. Matrigel is liquid at 4° C. and solid at 37° C., so that a pro-angiogenetic stimulus can be mixed with Matrigel and inoculated. In this protocol, the selected angiogenetic factor was […], added to the Matrigel together with 16 U/ml heparin, as described in literature (Bussolati B, Altered angiogenesis and survival in human tumor-derived endothelial cells. FASEB J. 2003; Bussolati B, Vascular endothelial growth factor receptor-1 modulates vascular endothelial growth factor-mediated angiogenesis via nitric oxide. Am J Pathol. 2001).
Calcium trifluoroacetate was administered intraperitoneally 30 minutes before Matrigel, then on alternate days (day 2, 4, 6), at a dose of 2 or 4 μg/mouse (0.2 mg/Kg). After 7 days, the animals were killed and the Matrigel plugs were removed for histological examination. Angiogenesis was evaluated by computer assisted morphometric analysis of the percentage of area covered by vessels.
This strong antiangiogenic effect could already be observed macroscopically and confirmed histologically.

As for `O=C([O-])C(F)(F)F.O=C([O-])C(F)(F)F.[Ca+2]` [calcium trifluoroacetate], the “action on endothelium proliferation” value in data set [1] was “evident inhibitory action”. Besides, in the data set on solid tumor cells, the “in vitro cytotoxic activity on solid tumor cells” value was “cytotoxic activity”. Also, the “effect of endothelial growth factors on calcium entrance into single endothelial cells” value in the data set on endothelial cells was “able to block, at least partly”. For the same molecule, the “tumor growth in animal experimental models” value with tumor growth is reported as “inhibit tumor growth”. In addition, the results for the “reduction in angiogenesis (morphometric analysis, percentage of area covered by vessels)” value in data set [2] (2 μg/mouse intraperitoneally on alternate days) and in data set [2] (4 μg/mouse intraperitoneally on alternate days) were “above 40%” and 80%, respectively. Also, the “effect of VEGF on angiogenesis in Matrigel plugs (macroscopic and histological)” value in data set [2] (mice treated with calcium trifluoroacetate, VEGF 40 ng/ml) is “dramatically reduced”.

The record behind these values is patent publication US20070260088A1, “Calcium Trifluoroacetate for Preparing Antiangiogenetic Medicaments” (priority 2004, published 2007).
